Where “and” joins values, the source holds several entries; their conditions need not be identical. Equal values may be shown once. Read-outs that look alike come from different tables or passages of the source.
Experiments:
[1] = tested on: prostate specific membrane antigen (PSMA); conditions: cited from earlier work
BxPC-3 xenograft tumors [2] = assay: Biodistribution in mice bearing BxPC-3 xenograft tumors; assay type: in vivo; conditions: 4 h p.i.; for Blood uptake / Bone uptake / Brain uptake / BxPC-3 Tumor uptake / Fecal Matter radioactivity / Gall Bladder uptake / Heart uptake / Kidneys uptake / Lg. Intestines uptake / Liver uptake / Lung uptake / Muscle uptake / Pancreas uptake / Skin uptake / Sm. Intestines uptake / Spleen uptake / Stomach uptake / Urine radioactivity: i.v.
Description: All animal procedures conformed to the Animal Welfare Act and were approved by the University of California, Davis Institutional Animal Care and Use Committee. Female athymic nu/nu-nude mice (6–8 weeks old) were purchased from Charles River Laboratories (Wilmington, MA, USA) and provided food and water on an ad libitum basis. BxPC-3 xenografts were implanted according to previous methods. Briefly, BxPC-3 cells were evaluated by flow cytometry to confirm integrin αvβ6 expression levels, injected subcutaneously into the left flank [5 million in 100 μL of a 1:1 mixture of serum-free RPMI and GFR Matrigel (Corning, New York, NY, USA)], and allowed to grow for approximately 3 weeks until tumors reached a diameter of 0.5–1 cm.
For biodistribution studies the [^64Cu]1–4 (3.7–5.55 MBq) in PBS (100 μL, pH 7.2) was injected intravenously (i.v.) via catheter into the tail vein. Following a conscious uptake period, the mice were anesthetized (5% isoflurane), euthanized, and dissected ([^64Cu]1 and [^64Cu]2, n = 3/radiolabeled peptide/time point; 4, 24, and 48 h p.i.; the 72 h time point was obtained from the imaging animals after the 72 h PET/CT scans; compounds [^64Cu]3 and [^64Cu]4, n = 2/radiolabeled compound at 4 h p.i.). Tissues were rapidly collected, weighed, and radioactivity measured with a γ-counter. Decay-corrected radioactivity concentrations are expressed as the percentage of injected dose per gram of tissue (% ID/g). Data are reported as mean ± standard deviation (SD) (Figure S20, S21 and S25).

[3] = parameters: method as in PMID 23236020, PMID 28094532; conditions: cited from earlier work
integrin αvβ6 [4] = biological target: T1, integrin αvβ6 (Homo sapiens, UniProt P06756+P18564); parameters: method as in PMID 34783573; conditions: competitive ELISA against biotinylated LAP; read-out: IC50, integrin αvβ6 affinity; cited from earlier work
T1 construct: purchased R&D Systems
T1 sequence (P06756 31-992 limits assumed): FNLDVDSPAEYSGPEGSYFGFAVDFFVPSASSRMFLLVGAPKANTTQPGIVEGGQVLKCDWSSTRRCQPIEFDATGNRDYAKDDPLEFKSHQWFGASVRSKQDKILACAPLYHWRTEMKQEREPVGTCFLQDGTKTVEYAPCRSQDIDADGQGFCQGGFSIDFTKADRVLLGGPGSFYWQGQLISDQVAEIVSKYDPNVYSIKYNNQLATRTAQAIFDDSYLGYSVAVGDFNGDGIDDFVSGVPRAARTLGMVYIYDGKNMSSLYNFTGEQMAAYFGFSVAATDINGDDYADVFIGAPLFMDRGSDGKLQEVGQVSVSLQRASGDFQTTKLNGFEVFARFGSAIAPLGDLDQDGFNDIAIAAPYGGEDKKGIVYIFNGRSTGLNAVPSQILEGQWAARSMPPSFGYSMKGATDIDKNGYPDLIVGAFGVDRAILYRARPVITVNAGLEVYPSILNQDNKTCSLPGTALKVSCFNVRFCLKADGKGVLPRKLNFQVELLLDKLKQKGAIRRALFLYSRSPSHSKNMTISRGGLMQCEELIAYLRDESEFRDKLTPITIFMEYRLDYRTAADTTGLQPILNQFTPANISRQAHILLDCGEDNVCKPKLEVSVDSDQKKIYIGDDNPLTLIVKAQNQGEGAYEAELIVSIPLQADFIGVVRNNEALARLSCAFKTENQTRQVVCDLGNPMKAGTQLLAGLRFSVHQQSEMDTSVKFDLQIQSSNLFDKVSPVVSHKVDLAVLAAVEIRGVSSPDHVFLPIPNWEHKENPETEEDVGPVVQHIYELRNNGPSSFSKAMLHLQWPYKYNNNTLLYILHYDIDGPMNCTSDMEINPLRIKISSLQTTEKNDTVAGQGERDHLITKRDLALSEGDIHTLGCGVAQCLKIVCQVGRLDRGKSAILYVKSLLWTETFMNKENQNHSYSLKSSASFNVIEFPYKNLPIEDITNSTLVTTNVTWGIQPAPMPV
T1 sequence (P18564 22-707 limits assumed): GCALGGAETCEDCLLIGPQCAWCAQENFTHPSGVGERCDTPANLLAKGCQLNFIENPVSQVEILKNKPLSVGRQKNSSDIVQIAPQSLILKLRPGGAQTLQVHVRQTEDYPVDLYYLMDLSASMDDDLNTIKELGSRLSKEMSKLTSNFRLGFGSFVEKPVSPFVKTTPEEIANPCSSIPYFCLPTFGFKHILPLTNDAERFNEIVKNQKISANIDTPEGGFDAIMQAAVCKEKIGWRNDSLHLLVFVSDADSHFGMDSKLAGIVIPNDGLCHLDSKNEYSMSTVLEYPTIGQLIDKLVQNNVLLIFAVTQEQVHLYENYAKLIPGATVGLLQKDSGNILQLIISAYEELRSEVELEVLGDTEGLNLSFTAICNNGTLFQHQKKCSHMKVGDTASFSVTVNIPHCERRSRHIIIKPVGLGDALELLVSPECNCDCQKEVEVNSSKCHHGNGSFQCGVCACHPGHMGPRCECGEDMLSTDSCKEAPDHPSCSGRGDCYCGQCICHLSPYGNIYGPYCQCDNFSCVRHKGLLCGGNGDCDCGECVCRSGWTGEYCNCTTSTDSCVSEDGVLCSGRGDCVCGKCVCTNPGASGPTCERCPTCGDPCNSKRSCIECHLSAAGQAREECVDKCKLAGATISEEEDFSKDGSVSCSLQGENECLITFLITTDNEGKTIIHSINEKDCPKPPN

integrin αvβ6 [5] = biological target: T1, integrin αvβ6; assay: Integrin αvβ6 affinity competitive binding ELISA against biotinylated LAP
Description: Affinity for the integrin αvβ6 was determined by competitive binding ELISA of [^NatCu]1 and [^NatCu]2 against biotinylated-LAP (G&P Biosciences, Santa Clara, CA, USA) as previously described to determine the half-maximum inhibitory concentration (IC50). Briefly, in a 96 well Nunc Immuno maxisorp plate, capturing anti-αv antibody (P2W7, 5 μg/mL, Abcam, MA, USA) was plated (50 μL/well) at 37 °C for 1 h, washed with PBS (3×), and blocked overnight with blocking buffer (300 μL/well, 0.5% non-fat dry milk powder (w/v), 1% Tween 20, in PBS). It was then washed with wash buffer that consisted of 2 mmol/L of Tris buffer (pH = 7.6), 150 mmol/L sodium chloride, 1 mmol/L manganese chloride, and 0.1% Tween 20 (v/v) in deionized water (3×). […] The ExtrAvidin HRP was detected with TMB One solution (50 μL/well; Promega Corp., Madison, WI, USA) for 10–15 min at room temperature. The reaction was stopped by adding 1N sulfuric acid (H2SO4, 50 μL/well; EMD, MA, USA) and the absorbance was measured in a Multiscan Ascent plate reader (Thermo Fisher, Waltham, MA, USA) at 450 nm. Half-maximal inhibitory concentration (IC50) of peptides was determined by fitting to sigmoidal dose-response model in GraphPad Prism 8.0 (GraphPad, CA, USA). […]

[6] = parameters: method as in PMID 32383076, PMID 24267053; conditions: cited from earlier work
human serum protein = tested on: human serum protein; parameters: method as in PMID 34783573; conditions: either serum albumin (human); cited from earlier work
mouse serum protein = tested on: mouse serum protein; parameters: method as in PMID 34783573; conditions: either serum albumin (mouse); cited from earlier work
BxPC-3 xenograft tumors [7] = tested on: BxPC-3 xenograft tumors; parameters: method as in PMID 34783573; conditions: cited from earlier work
[8] = parameters: method as in PMID 26771036, PMID 26251416; conditions: cited from earlier work
[9] = tested on: U87MG glioblastoma tumor model; conditions: cited from earlier work
somatostatin receptor = conditions: cited from earlier work; for Tumor accumulation: 24 h
[10] = parameters: method as in PMID 29653971; conditions: clinical trials; cited from earlier work

Cc1cc(-c2ccc(NC(=O)[C@H](CCCCNC(=O)CCN3C(=O)CC(SCC(=O)NCC4CCC(C(=O)N[C@H](Cc5ccc6ccccc6c5)C(=O)NCCCC[C@H](NC(=O)N[C@@H](CCC(=O)O)C(=O)O)C(=O)O)CC4)C3=O)NC(=O)CN3CCN(CC(=O)O)CCN(CC(=O)O)CCN(CC(=O)O)CC3)c(C)c2)ccc1N=Nc1ccc2c(S(=O)(=O)O)cc(S(=O)(=O)O)c(N)c2c1O (stereo partly shown) [EB-ABM PSMA-617]
Kidney accumulation ([1]; 4 h): > 20 % ID/g | Tumor accumulation ([1]; from 4 h to 48 h): 65.6–77.3 % ID/g

Cc1cc(-c2ccc(NC(=O)CCC(=O)NCCCC[C@H](NC(=O)CN3CCN(CC(=O)O)CCN(CC(=O)O)CCN(CC(=O)O)CC3)C(N)=O)c(C)c2)ccc1N=Nc1ccc2c(S(=O)(=O)O)cc(S(=O)(=O)O)c(N)c2c1O [[^64Cu]3, [^64Cu]Cu DOTA-EB, metal not drawn]
Tumor-Kidney ratio (BxPC-3 xenograft tumors [2]): 1.34 ±0.15 | Tumor-Lg Intestines ratio (BxPC-3 xenograft tumors [2]): 1.49 ±0.68 | Tumor-Liver ratio (BxPC-3 xenograft tumors [2]): 1.2–1.3 | Tumor-Sm Intestines ratio (BxPC-3 xenograft tumors [2]): 2.05 ±0.43 | Tumor-Stomach ratio (BxPC-3 xenograft tumors [2]): 2.52 ±0.58 | Blood uptake (BxPC-3 xenograft tumors [2]): 38.9 ± 10.4 % ID/g | Bone uptake (BxPC-3 xenograft tumors [2]): 4.81 ± 0.79 % ID/g | Brain uptake (BxPC-3 xenograft tumors [2]): 0.97 ± 0.19 % ID/g | BxPC-3 Tumor uptake (BxPC-3 xenograft tumors [2]): 24.82 ± 0.90 % ID/g | Fecal Matter radioactivity (BxPC-3 xenograft tumors [2]): 33.79 ± 0.90 % ID/g | Gall Bladder uptake (BxPC-3 xenograft tumors [2]): 28.57 ± 10.67 % ID/g | Heart uptake (BxPC-3 xenograft tumors [2]): 12.05 ± 2.69 % ID/g | Kidneys uptake (BxPC-3 xenograft tumors [2]): 18.6 ± 1.4 % ID/g | Lg. Intestines uptake (BxPC-3 xenograft tumors [2]): 12.75 ± 0.65 % ID/g | Liver uptake (BxPC-3 xenograft tumors [2]): 22.01 ± 4.74 % ID/g | Lung uptake (BxPC-3 xenograft tumors [2]): 19.40 ± 1.33 % ID/g | Muscle uptake (BxPC-3 xenograft tumors [2]): 4.64 ± 1.40 % ID/g | Pancreas uptake (BxPC-3 xenograft tumors [2]): 6.40 ± 1.03 % ID/g | Skin uptake (BxPC-3 xenograft tumors [2]): 14.77 ± 1.82 % ID/g | Sm. Intestines uptake (BxPC-3 xenograft tumors [2]): 12.45 ± 3.06 % ID/g | Spleen uptake (BxPC-3 xenograft tumors [2]): 8.10 ± 1.19 % ID/g | Stomach uptake (BxPC-3 xenograft tumors [2]): 10.16 ± 2.71 % ID/g | Urine radioactivity (BxPC-3 xenograft tumors [2]): 63.25 ± 27.58 % ID/g | Blood uptake (BxPC-3 xenograft tumors [2]; listed as [64Cu]3): 38.88 ± 10.37 % ID/g | Kidneys uptake (BxPC-3 xenograft tumors [2]; listed as [64Cu]3): 18.59 ± 1.41 % ID/g | Tumor-Blood ratio (BxPC-3 xenograft tumors [2]; listed as [64Cu]3): 0.66 ±0.15 | Tumor-Liver ratio (BxPC-3 xenograft tumors [2]; listed as [64Cu]3): 1.15 ±0.21 | Tumor-Muscle ratio (BxPC-3 xenograft tumors [2]; listed as [64Cu]3): 5.58 ±1.49

NC(=O)[C@H](CCCCNC(=O)[C@H](CC(=O)O)NC(=O)CCCNC(=O)CCCc1ccc(I)cc1)NC(=O)CN1CCN(CC(=O)O)CCN(CC(=O)O)CCN(CC(=O)O)CC1 [[^64Cu]4, [^64Cu]Cu DOTA-IP, metal not drawn]
Tumor-Kidney ratio (BxPC-3 xenograft tumors [2]): 1.83 ±0.19 | Tumor-Lg Intestines ratio (BxPC-3 xenograft tumors [2]): 2.83 ±0.36 | Tumor-Liver ratio (BxPC-3 xenograft tumors [2]): 1.2–1.3 | Tumor-Sm Intestines ratio (BxPC-3 xenograft tumors [2]): 2.31 ±0.27 | Tumor-Stomach ratio (BxPC-3 xenograft tumors [2]): 3.31 ±0.37 | Blood uptake (BxPC-3 xenograft tumors [2]): 9.5 ± 1.3 % ID/g | Bone uptake (BxPC-3 xenograft tumors [2]): 1.19 ± 0.06 % ID/g | Brain uptake (BxPC-3 xenograft tumors [2]): 0.36 ± 0.05 % ID/g | BxPC-3 Tumor uptake (BxPC-3 xenograft tumors [2]): 7.99 ± 1.93 % ID/g | Fecal Matter radioactivity (BxPC-3 xenograft tumors [2]): 2.54 ± 1.41 % ID/g | Gall Bladder uptake (BxPC-3 xenograft tumors [2]): 10.23 ± 3.01 % ID/g | Heart uptake (BxPC-3 xenograft tumors [2]): 3.07 ± 0.01 % ID/g | Kidneys uptake (BxPC-3 xenograft tumors [2]): 4.34 ± 0.61 % ID/g and 4.3 % ID/g | Lg. Intestines uptake (BxPC-3 xenograft tumors [2]): 2.90 ± 1.05 % ID/g | Liver uptake (BxPC-3 xenograft tumors [2]): 6.21 ± 1.51 % ID/g | Lung uptake (BxPC-3 xenograft tumors [2]): 5.01 ± 0.69 % ID/g | Muscle uptake (BxPC-3 xenograft tumors [2]): 1.28 ± 0.03 % ID/g | Pancreas uptake (BxPC-3 xenograft tumors [2]): 1.50 ± 0.09 % ID/g | Skin uptake (BxPC-3 xenograft tumors [2]): 4.38 ± 0.77 % ID/g | Sm. Intestines uptake (BxPC-3 xenograft tumors [2]): 3.53 ± 1.24 % ID/g | Spleen uptake (BxPC-3 xenograft tumors [2]): 2.10 ±0.24 % ID/g | Stomach uptake (BxPC-3 xenograft tumors [2]): 2.39 ± 0.31 % ID/g | Urine radioactivity (BxPC-3 xenograft tumors [2]): 72.25 ± 35.13 % ID/g | Blood uptake (BxPC-3 xenograft tumors [2]; listed as [64Cu]4): 9.51 ± 1.32 % ID/g | Tumor-Blood ratio (BxPC-3 xenograft tumors [2]; listed as [64Cu]4): 0.83 ±0.09 | Tumor-Liver ratio (BxPC-3 xenograft tumors [2]; listed as [64Cu]4): 1.29 ± 0.001 | Tumor-Muscle ratio (BxPC-3 xenograft tumors [2]; listed as [64Cu]4): 6.25 ±1.37

Nc1nc2ncc(CNc3ccc(C(=O)N[C@@H](CCC(=O)O)C(=O)O)cc3)nc2c(=O)[nH]1 [folic acid]
Kidney accumulation ([3]; 4 h): 70 % ID/g | Tumor accumulation ([3]; 24 h p.i.): 7 % ID/g

O=C(O)CC[C@H](NC(=O)N[C@@H](CCCCNC(=O)[C@H](Cc1ccc2ccccc2c1)NC(=O)[C@H]1CC[C@H](CNC(=O)CN2CCN(CC(=O)O)CCN(CC(=O)O)CCN(CC(=O)O)CC2)CC1)C(=O)O)C(=O)O [non-ABM PSMA-617]
Tumor accumulation ([1]; 24 h): 38 % ID/g

DOTA-αvβ6-BP
IC50 (integrin αvβ6 [4]): 28 ± 3 nM

[NatCu]Cu DOTA-EB-αvβ6-BP [[^NatCu]1]
IC50 (integrin αvβ6 [5]): 14 ± 2 nM

[NatCu]Cu DOTA-IP-αvβ6-BP [[^NatCu]2]
IC50 (integrin αvβ6 [5]): 19 ± 5 nM

[^18F]AlF NOTA-IP-ABM-αvβ6-BP
Fold lower kidney retention than [18F]AlF NOTA-A20FMDV2-peptide [6]: > 3.5 fold

[^64Cu]Cu DOTA-αvβ6-BP
Binding to serum albumin (human serum protein): < 29% | Binding to serum albumin (mouse serum protein): < 29% | BxPC-3 Tumor uptake (BxPC-3 xenograft tumors [7]; 4 h, same BxPC-3 tumor model): 1.61 ± 0.70 % ID/g | Kidney accumulation (BxPC-3 xenograft tumors [7]; 4 h): 20.37 ± 1.67 % ID/g | Kidney accumulation (BxPC-3 xenograft tumors [7]; 48 h): 6.81 ± 1.36 % ID/g

[^64Cu]Cu NOTA-EB
Blood accumulation ([8]; 4 h): ~ 15 % ID/g | Blood accumulation ([8]; 1 d): ~ 10 % ID/g

[^64Cu]Cu NOTA-EB-cRGDfK
Fold improvement in tumor accumulation vs. [64Cu]Cu NOTA-cRGDfK [9]: > 16 fold | Tumor accumulation [9]: 16.6 % ID/g

[^64Cu]Cu NOTA-cRGDfK
Tumor accumulation [9]: < 1.1 % ID/g

[^177Lu]Lu DOTA-EB-TATE
Kidney accumulation (somatostatin receptor; 4 h): ~ 30 % ID/g | Tumor accumulation (somatostatin receptor): 78.8 % ID/g | Kidney accumulation (somatostatin receptor; 72 h): ~ 15 % ID/g | Fold increase in tumor dose delivery [10]: 7.9 fold

[^177Lu]Lu DOTA-TATE
Tumor accumulation (somatostatin receptor): 9.3 % ID/g

— PMC9025560, “A Comparison of Evans Blue and 4-(p-Iodophenyl)butyryl Albumin Binding Moieties on an Integrin αvβ6 Binding Peptide” (Pharmaceutics, 2022)
